Assay results: patent US20230146455A1, “TREATMENT OF INFLAMMATORY DISEASES WITH PEPTIDES AND PHARMACEUTICAL COMPOSITIONS” (Yuyu Pharma, Inc., priority 2020, published 2023)
Where “and” joins values, the source holds several entries; their conditions need not be identical. Equal values may be shown once. Where a SMILES comes first, the peptide text is derived from it. [ ]: non-standard residue; d: D form. Hyp = O=C(O)[C@@H]1C[C@@H](O)CN1

What was measured:
[1] = PBMC cell counts (total, live, viability; trypan blue, Countess) with and without LPS and test articles (Example 9); format: cell-based, human; conditions: human
Procedure, shortened: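 Human PBMCs were pretreated 2 h with test articles (0.001–100 uM) or 0.5% DMSO vehicle, then given LPS at 5 ug/ml or no LPS, in triplicate. After 24 hr, total and live cells and viability were counted by 1:1 trypan blue staining on an automated counter.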

[2] = test system: CCL5/RANTES; test: Example 9 Luminex, LPS hPBMCs: CCL5/RANTES; format: cell-based, human; conditions: PBMC + LPS(5 ug/ml)
Method: Treatment Human PBMCs were pretreated with YY-101, YDE-011 and YDE-043 or reference compound; Xiidra® at various concentration (ranging from 1 nM to 100 uM) for 2 h before stimulation. An equal volume of 0.5% DMSO was used as a vehicle control. Then, the cells were treated with LPS at 5 ug/ml. The supernatants from treated cells were harvested at 24 h and placed in a 96 well for Luminex cytokine & chemokine profiling using a Luminex 200 multiplex assay (Luminex; R&D system, USA).
The main study arm with triplicate wells per group in a 24-well plate: • 1. Blank • 2. PBMC: 0.5% DMSO • 3. PBMC+LPS (5 ug/ml) • 4. PBMC+YY-101 100 uM • 5. PBMC+YY-101 10 uM • 6. PBMC+YY-101 1 uM • 7. PBMC+YY-101 0.1 uM • 8. PBMC+YY-101 0.01 uM • 9. PBMC+LPS (5 ug/ml)+Xiidra®100 uM • 10. PBMC+LPS (5 ug/ml)+Xiidra® 10 uM • 11. PBMC+LPS (5 ug/ml)+Xiidra® 1 uM • 12. PBMC+LPS (5 ug/ml)+Xiidra®0.1 uM • 13. PBMC+LPS (5 ug/ml)+Xiidra®0.01 uM • 14. PBMC+LPS (5 ug/ml)+Xiidra®0.001 uM • 15. PBMC+LPS (5 ug/ml)+YY-101 100 uM • 16. PBMC+LPS (5 ug/ml)+YY-101 10 uM • 17. PBMC+LPS (5 ug/ml)+YY-101 1 uM • 18. PBMC+LPS (5 ug/ml)+YY-101 0.1 uM • 19. PBMC+LPS (5 ug/ml)+YY-101 0.01 uM • 20. PBMC+LPS (5 ug/ml)+YY-101 0.001 uM • 21. PBMC+LPS (5 ug/ml)+YDE-011 100 uM • 22. PBMC+LPS (5 ug/ml)+YDE-011 10 uM • 23. PBMC+LPS (5 ug/ml)+YDE-011 1 uM • 24. PBMC+LPS (5 ug/ml)+YDE-011 0.1 uM • 25. PBMC+LPS (5 ug/ml)+YDE-011 0.01 uM • 26. PBMC+LPS (5 ug/ml)+YDE-011 0.001 uM • 27. PBMC+LPS (5 ug/ml)+YDE-043 100 uM • 28. PBMC+LPS (5 ug/ml)+YDE-043 10 uM • 29. PBMC+LPS (5 ug/ml)+YDE-043 1 uM • 30. PBMC+LPS (5 ug/ml)+YDE-043 0.1 uM • 31. PBMC+LPS (5 ug/ml)+YDE-043 0.01 uM • 32. PBMC+LPS (5 ug/ml)+YDE-043 0.001 uM
Multiplex assay was used to measure 30 cytokines and chemokines. The 1:2, 1:10 and 1:200 diluted cell supernatant and serial dilution of the standard were dispensed into a 96 well plate at 50 ul/well. Then, the pre-mixed cocktail of antibody-coated magnetic beads was dispensed at 50 ul/well and incubated at room temperature for 2 h in a horizontal orbital microplate shaker at 800±500 rpm. The beads were washed using a magnetic device to prevent loss. The biotin-antibody was dispensed in 50 ul of each well and incubated at room temperature for 1 h in a shaker at 800±500 rpm. After washing, streptavidin-PE was added at 50 ul/well and incubated at room temperature for 30 min in a shaker under the same conditions. Finally, after washing, wash buffer (100 ul/well) was added to the plate and incubated in a shaker for 2 min. The Luminex™ 200 setting were set according to the manufacturer's protocol. The data was calculated with a standard five-parameter logistic nonlinear regression analysis of the data (xPonent software 4.2, USA). The levels of cytokine/chemokine are normalized to the live cell counts (1×10^5 cells/mL) and presented as concentrations per mL (pg/mL or ng/mL).

[3] = test article 0.001 uM, single replicates (1st, 2nd, 3rd)
[4] = test article 0.01 uM, single replicates (1st, 2nd, 3rd)
[5] = test article 0.1 uM, single replicates (1st, 2nd, 3rd)
[6] = test article 1 uM, single replicates (1st, 2nd, 3rd)
[7] = test article 10 uM, single replicates (1st, 2nd, 3rd)
[8] = test article 100 uM, single replicates (1st, 2nd, 3rd)

Structure (SMILES): CC(C)C[C@H](NC(=O)CNC(=O)[C@H](CC(C)C)NC(=O)[C@H](CCC(N)=O)NC(=O)CNC(=O)[C@@H]1C[C@@H](O)CN1)C(=O)N[C@@H](C)C(=O)NCC(=O)N1CCC[C@H]1C(=O)N[C@@H](CCCCN)C(=O)O [YDE-011] (H-[Hyp]GQLGLAGPK-OH)
- viability at 24 h, 0.001 µM ([1]; PBMCs, PBMC + LPS(5 ug/ml) + compound 0.001 uM, 24 hr): 85 ± 5.1%
- viability at 24 h, 0.01 µM ([1]; PBMCs, PBMC + LPS(5 ug/ml) + compound 0.01 uM, 24 hr): 81 ± 1.2%
- viability at 24 h, 0.1 µM ([1]; PBMCs, PBMC + LPS(5 ug/ml) + compound 0.1 uM, 24 hr): 82 ± 4%
- viability at 24 h, 1 µM ([1]; PBMCs, PBMC + LPS(5 ug/ml) + compound 1 uM, 24 hr): 79.7 ± 5.8%
- viability at 24 h, 10 µM ([1]; PBMCs, PBMC + LPS(5 ug/ml) + compound 10 uM, 24 hr): 88.3 ± 1.5%
- viability at 24 h, 100 µM ([1]; PBMCs, PBMC + LPS(5 ug/ml) + compound 100 uM, 24 hr): 74.3 ± 4.1%
- viability at 24 h, 0.01 µM ([1]; human PBMCs, PBMC + LPS(5 ug/ml), test article 0.01 uM, single replicates): 83%
- Concentration (CCL5/RANTES) ([2]; test article 0.001 uM, Mean): 209.7 pg/mL
- MFI (Bead name: CCL5/RANTES) ([2]; test article 0.001 uM, Mean): 477.2
- conc/live cell (CCL5/RANTES) ([2]; test article 0.001 uM, Mean): 39.5 pg/10^5
- Concentration (CCL5/RANTES) [2, 3]: 202.5 pg/ml (2×) and 224.1 pg/ml
- MFI (Bead name: CCL5/RANTES) [2, 3]: 455.5 (2×) and 520.5
- conc/live cell (CCL5/RANTES) [2, 3]: 45.0 pg/10^5 and 34.9 pg/10^5 and 38.6 pg/10^5
- Concentration (CCL5/RANTES) ([2]; test article 0.01 uM, Mean): 215.3 pg/mL
- MFI (Bead name: CCL5/RANTES) ([2]; test article 0.01 uM, Mean): 494.0
- conc/live cell (CCL5/RANTES) ([2]; test article 0.01 uM, Mean): 37.1 pg/10^5
- Concentration (CCL5/RANTES) [2, 4]: 216.5 pg/mL and 220.2 pg/mL and 209.4 pg/mL
- MFI (Bead name: CCL5/RANTES) [2, 4]: 497.5 and 508.5 and 476.0
- conc/live cell (CCL5/RANTES) [2, 4]: 34.9 pg/10^5 and 43.2 pg/10^5 and 33.2 pg/10^5
- Concentration (CCL5/RANTES) ([2]; test article 0.1 uM, Mean): 207.0 pg/mL
- MFI (Bead name: CCL5/RANTES) ([2]; test article 0.1 uM, Mean): 468.8
- conc/live cell (CCL5/RANTES) ([2]; test article 0.1 uM, Mean): 36.3 pg/10^5
- Concentration (CCL5/RANTES) [2, 5]: 206.7 pg/mL and 205.2 pg/mL and 209.0 pg/mL
- MFI (Bead name: CCL5/RANTES) [2, 5]: 468.0 and 463.5 and 475.0
- conc/live cell (CCL5/RANTES) [2, 5]: 31.3 pg/10^5 and 41.0 pg/10^5 and 36.7 pg/10^5
- Concentration (CCL5/RANTES) ([2]; test article 1 uM, Mean): 199.8 pg/mL
- MFI (Bead name: CCL5/RANTES) ([2]; test article 1 uM, Mean): 447.5
- conc/live cell (CCL5/RANTES) ([2]; test article 1 uM, Mean): 39.8 pg/10^5
- Concentration (CCL5/RANTES) [2, 6]: 205.5 pg/mL and 199.5 pg/mL and 194.4 pg/mL
- MFI (Bead name: CCL5/RANTES) [2, 6]: 464.5 and 446.5 and 431.5
- conc/live cell (CCL5/RANTES) [2, 6]: 37.4 pg/10^5 and 41.6 pg/10^5 and 40.5 pg/10^5
- Concentration (CCL5/RANTES) ([2]; test article 10 uM, Mean): 204.9 pg/mL
- MFI (Bead name: CCL5/RANTES) ([2]; test article 10 uM, Mean): 462.7
- conc/live cell (CCL5/RANTES) ([2]; test article 10 uM, Mean): 38.9 pg/10^5
- Concentration (CCL5/RANTES) [2, 7]: 214.7 pg/mL and 201.8 pg/mL and 198.1 pg/mL
- MFI (Bead name: CCL5/RANTES) [2, 7]: 492.0 and 453.5 and 442.5
- conc/live cell (CCL5/RANTES) [2, 7]: 39.8 pg/10^5 and 34.8 pg/10^5 and 42.1 pg/10^5
- Concentration (CCL5/RANTES) ([2]; test article 100 uM, Mean): 161.8 pg/mL
- MFI (Bead name: CCL5/RANTES) ([2]; test article 100 uM, Mean): 338.5
- conc/live cell (CCL5/RANTES) ([2]; test article 100 uM, Mean): 26.7 pg/10^5
- Concentration (CCL5/RANTES) [2, 8]: 170.4 pg/mL and 153.5 pg/mL and 161.5 pg/mL
- MFI (Bead name: CCL5/RANTES) [2, 8]: 362.5 and 315.5 and 337.5
- conc/live cell (CCL5/RANTES) [2, 8]: 27.9 pg/10^5 and 25.2 pg/10^5 and 26.9 pg/10^5
